Counter-ions that a name gives are not always drawn.

For orientation: melting point means the temperature of the solid-liquid transition.

Data set [1] has as its target T1, hα2A receptor (Homo sapiens, UniProt P08913).
T1 construct: expressed in transfected cells; host or cells: CHO cells, stably transfected; membrane preparation
T1 sequence (P08913 1-465): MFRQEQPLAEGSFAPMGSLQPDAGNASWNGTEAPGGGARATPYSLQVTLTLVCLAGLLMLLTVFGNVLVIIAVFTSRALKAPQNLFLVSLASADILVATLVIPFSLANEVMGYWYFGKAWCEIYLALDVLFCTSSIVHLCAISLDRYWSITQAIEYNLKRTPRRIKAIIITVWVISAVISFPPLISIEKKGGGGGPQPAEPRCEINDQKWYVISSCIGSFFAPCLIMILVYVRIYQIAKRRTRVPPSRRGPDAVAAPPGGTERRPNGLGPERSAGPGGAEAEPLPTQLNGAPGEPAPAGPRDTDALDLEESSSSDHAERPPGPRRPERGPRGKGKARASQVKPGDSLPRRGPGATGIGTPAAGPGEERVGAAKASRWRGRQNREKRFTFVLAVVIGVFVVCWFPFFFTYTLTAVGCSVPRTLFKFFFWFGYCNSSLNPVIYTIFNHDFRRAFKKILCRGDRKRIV
Nature of the data set: Radioligand binding experiment for α2A-adrenoceptor ([3H]raulwolscine, CHO cell membranes). The settings on record: [3H]raulwolscine binding, read-out: h-α2A pIC50 (converted).

For data set [2], the target named is T2, hα2C receptor (Homo sapiens, UniProt P18825).
T2 construct: expressed in transfected cells; host or cells: CHO cells, stably transfected; membrane preparation
T2 sequence (P18825 1-462): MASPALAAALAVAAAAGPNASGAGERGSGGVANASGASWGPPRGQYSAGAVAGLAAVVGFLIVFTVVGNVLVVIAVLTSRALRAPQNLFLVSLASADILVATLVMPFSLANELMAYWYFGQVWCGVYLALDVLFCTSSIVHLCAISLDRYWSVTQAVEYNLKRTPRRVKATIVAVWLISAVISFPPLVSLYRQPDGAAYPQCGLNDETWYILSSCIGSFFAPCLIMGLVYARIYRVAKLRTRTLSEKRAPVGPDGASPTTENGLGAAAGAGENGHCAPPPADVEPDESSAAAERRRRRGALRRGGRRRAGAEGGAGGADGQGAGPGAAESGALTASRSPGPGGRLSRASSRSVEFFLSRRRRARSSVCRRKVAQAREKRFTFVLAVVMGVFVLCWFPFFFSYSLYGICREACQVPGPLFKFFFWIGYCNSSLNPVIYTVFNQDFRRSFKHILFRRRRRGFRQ
Nature of the data set: Radioligand binding experiment for α2C-adrenoceptor ([3H]raulwolscine, CHO cell membranes). To be noted: [3H]raulwolscine binding, read-out: h-α2C pIC50 (converted).

The target of data set [3] is T3, 5HT-Transporter (Homo sapiens, UniProt P31645).
T3 construct: Human platelet membranes (Oceanix Biosciences Corporation, Hanover, Md., USA) were thawed; tissue Oceanix Biosciences Corporation, Hanover, Md., USA; host or cells: human platelet membranes
T3 sequence (P31645 whole entry): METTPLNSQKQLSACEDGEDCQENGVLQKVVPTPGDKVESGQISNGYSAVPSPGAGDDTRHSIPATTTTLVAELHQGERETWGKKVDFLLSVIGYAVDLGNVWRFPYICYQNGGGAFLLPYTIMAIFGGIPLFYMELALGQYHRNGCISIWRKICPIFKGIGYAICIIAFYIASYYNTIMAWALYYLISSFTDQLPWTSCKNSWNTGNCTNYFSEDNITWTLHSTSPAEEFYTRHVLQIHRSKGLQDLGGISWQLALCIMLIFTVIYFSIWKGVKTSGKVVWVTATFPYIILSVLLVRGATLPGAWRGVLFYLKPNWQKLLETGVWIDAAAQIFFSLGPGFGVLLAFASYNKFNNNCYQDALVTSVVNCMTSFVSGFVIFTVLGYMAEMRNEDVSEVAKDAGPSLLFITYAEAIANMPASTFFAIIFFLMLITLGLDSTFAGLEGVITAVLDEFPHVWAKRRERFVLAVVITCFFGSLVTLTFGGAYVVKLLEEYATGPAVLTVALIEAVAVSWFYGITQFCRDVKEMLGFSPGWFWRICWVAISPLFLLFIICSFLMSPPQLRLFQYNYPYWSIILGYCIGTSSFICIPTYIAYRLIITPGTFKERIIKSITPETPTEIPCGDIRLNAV
Description: Binding experiment for the 5HT-transporter ([3H]paroxetine, human platelet membranes). To be noted: [3H]paroxetine 0.5 nM, read-out: h-5HTT pIC50 (converted). Put shortly:
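Competition binding of [3H]paroxetine to human platelet membranes in Tris-HCl 50 mM, 120 mM NaCl, 5 mM KCl, with filtration and scintillation counting.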

`C/C(=C\c1ccccc1)CN1CCC(Nc2nccn(Cc3ccc(CN)cc3)c2=O)CC1` [1-6] showed a melting point of 286 °C. Moreover, in data set [1], the IC50 was 12.6 nM. Besides, the IC50 in data set [2] was 2.51 nM. In data set [3], the IC50 is 398 nM.

Compound `C/C(=C\c1ccccc1)CN1CCC(Nc2nccn(CC(=O)N3CCCCC3)c2=O)CC1` [2-5] gave a melting point of 170 °C. Also, in data set [1], the IC50 was 126 nM. The IC50 in data set [2] is 6.31 nM. For the same compound, the IC50 in data set [3] is 5010 nM.

Regarding `C/C(=C\c1ccccc1)CN1CCC(Nc2nccn(-c3ccsc3)c2=O)CC1` [6-4], the melting point amounted to 210 °C. For the same compound, the IC50 in data set [1] is 39.8 nM. Also, the IC50 in data set [2] is 6.31 nM. Also, the IC50 in data set [3] is 1000 nM.

`C/C(=C\c1ccccc1)CN1CCC(Nc2nccn(CCCNCc3ccccc3)c2=O)CC1` (as salt: HCl) [1-47] returned a melting point of 270 °C.

`C/C(=C\c1ccccc1)CN1CCC(Nc2nccn(Cc3cc(C)on3)c2=O)CC1` [6-3]: the melting point is 107 °C. Further, the IC50 in data set [1] was 63.1 nM. In addition, the IC50 in data set [2] was 31.6 nM. The IC50 in data set [3] is 2000 nM.

`C/C(=C\c1ccccc1)CN1CCC(Nc2nccn(CCCN(C)C)c2=O)CC1` [1-14] displayed a melting point of 254 °C. The IC50 in data set [1] is 63.1 nM. The IC50 in data set [3] was 6310 nM.

As to `C/C(=C\c1ccccc1)CN1CCC(Nc2nccn(Cc3ccc(CNS(=O)(=O)c4ccccc4)cc3)c2=O)CC1` [1-159], the melting point was found to be 128 °C. Moreover, the IC50 in data set [1] was 63.1 nM. Moreover, in data set [2], the IC50 is 25.1 nM. For the same compound, the IC50 in data set [3] was 794 nM.

The compound `C/C(=C\c1ccccc1)CN1CCC(Nc2nccn(Cc3ccc(CNC(=O)c4ccco4)cc3)c2=O)CC1` [1-152] yielded a melting point of 103 °C. Besides, in data set [1], the IC50 is 126 nM. For the same compound, the IC50 in data set [2] was 31.6 nM. Besides, in data set [3], the IC50 was 501 nM.

Take `C/C(=C\c1ccccc1)CN1CCC(Nc2nccn(Cc3ccccc3CS(=O)(=O)c3ccccc3)c2=O)CC1` [4-3]: the melting point was 112 °C. Also, in data set [1], the IC50 is 158 nM. Besides, the IC50 in data set [2] was 15.8 nM. Further, in data set [3], the IC50 was 398 nM.

In the case of `C=CCn1ccnc(NC2CCN(C/C(C)=C/c3ccccc3)CC2)c1=O` [7-11], the melting point was determined as 126 °C. Also, the IC50 in data set [1] is 31.6 nM. In addition, the IC50 in data set [2] is 12.6 nM. The IC50 in data set [3] is 2000 nM.

In the case of `C/C(=C\c1ccccc1)CN1CCC(Nc2nccn(CCN3CCCCC3)c2=O)CC1` (as salt: HCl) [2-4], the melting point was 294 °C.

Turning to `C/C(=C\c1ccccc1)CN1CCC(Nc2nccn(Cc3ccc(CN)cc3)c2=O)CC1` (as salt: HCl) [1-7], the melting point came out at 231 °C.

As to `CC(=O)CNCCCn1ccnc(NC2CCN(C/C(C)=C/c3ccccc3)CC2)c1=O` [1-37], the melting point is 160 °C. In addition, the IC50 in data set [1] was 79.4 nM. For the same compound, in data set [2], the IC50 was 3.98 nM. For the same compound, the IC50 in data set [3] is 1260 nM.

On to `C/C(=C\c1ccccc1)CN1CCC(Nc2nccn(Cc3ccc([N+](=O)[O-])cc3)c2=O)CC1` [5-25], for which the melting point amounted to 123 °C. Moreover, the IC50 in data set [1] was 126 nM. Moreover, the IC50 in data set [2] is 31.6 nM. The IC50 in data set [3] was 631 nM.

With `CC(=O)c1ccc(S(=O)(=O)NCc2ccc(Cn3ccnc(NC4CCN(C/C(C)=C/c5ccccc5)CC4)c3=O)cc2)cc1` [1-165], the melting point came out at 110 °C. For the same compound, the IC50 in data set [1] was 158 nM. Also, the IC50 in data set [2] is 25.1 nM. The IC50 in data set [3] was 1000 nM.

Consider `C/C(=C\c1ccccc1)CN1CCC(Nc2nccn(-c3ccc(CN(C)CCN(C)C)cc3)c2=O)CC1` [1-110], for which the melting point stood at 115 °C. Moreover, the IC50 in data set [1] is 20 nM. In data set [2], the IC50 is 2 nM. Further, the IC50 in data set [3] is 501 nM.

Turning to `C/C(=C\c1ccccc1)CN1CCC(Nc2nccn(CC(=O)N(C)C)c2=O)CC1` [1-16], the melting point amounted to 128 °C. In data set [1], the IC50 is 100 nM. Further, the IC50 in data set [2] is 15.8 nM. Also, the IC50 in data set [3] was above 10000 nM.

Consider `C/C(=C\c1ccccc1)CN1CCC(Nc2nccn(Cc3ccc(OC(F)(F)F)cc3)c2=O)CC1` [3-15], for which the melting point was found to be 99 °C. Besides, in data set [1], the IC50 is 251 nM. For the same compound, in data set [2], the IC50 was 126 nM. In data set [3], the IC50 was 1260 nM.

In the case of `C/C(=C\c1ccccc1)CN1CCC(Nc2nccn(CC#CCN3C(=O)c4ccccc4C3=O)c2=O)CC1` (as salt: trifluoroacetate) [2-54], the melting point was 67 °C.
